This test has as its target T1, human IBAT (Homo sapiens, UniProt Q12908).
T1 construct: expressed in transfected cells; host or cells: Baby hamster kidney (BHK) cells, clone H14
T1 sequence (Q12908 1-348): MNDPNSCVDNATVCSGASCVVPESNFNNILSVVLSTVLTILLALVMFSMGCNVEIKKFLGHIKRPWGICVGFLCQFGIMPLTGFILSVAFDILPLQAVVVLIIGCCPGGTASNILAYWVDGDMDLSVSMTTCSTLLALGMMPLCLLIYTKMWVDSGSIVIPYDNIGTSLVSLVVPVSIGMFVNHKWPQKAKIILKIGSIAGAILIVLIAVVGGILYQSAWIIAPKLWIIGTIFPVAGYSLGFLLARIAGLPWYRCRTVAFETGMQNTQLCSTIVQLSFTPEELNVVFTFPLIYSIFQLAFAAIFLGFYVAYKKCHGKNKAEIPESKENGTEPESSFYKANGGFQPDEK
The test is described as follows: In vitro assay of IBAT-mediated uptake of [14C]-taurocholate (TC) in H14 cells. It is filed as cell-based. The method in brief: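 BHK cells stably expressing human IBAT (H14) were incubated 2 h at 37° C with compound and 3 μM final [14C]-taurocholate in DMEM (4.5 g/L glucose) plus 0.2% fatty acid-free BSA. After cold PBS washes, cell-associated radioactivity was measured by scintillation counting.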

Read-outs that look alike come from different tables or passages of the source.

As usually defined, the IC50 is the midpoint of a concentration-inhibition curve. For `CCCCC1(CC)CS(=O)(=O)c2ccc(N(C)C)cc2C(c2ccc(OC)cc2)C1O` (centres unmarked) [Example 1099], the IC50 (read-out: Human TC IC50) worked out at 6.3 nM.
Still for that read-out and setting: as for `CCCCC1(CCCC)CS(=O)(=O)c2ccc(N(C)C)cc2C(c2ccc(OC)cc2)C1O` (centres unmarked) [Example 1100], the figure is 6.8 nM.
Take `CCCCC1(CCCC)CS(=O)(=O)c2ccc(N(C)C)cc2C(c2ccc(OCCOCC[n+]3ccc(N(C)C)cc3)c(F)c2)C1O` (centres unmarked) [Example 1101]: where the note is “read-out: Human TC IC50”, the IC50 is 7 nM.
As for `CCCCC1(CCCC)CS(=O)(=O)c2ccc(N(C)C)cc2C(c2ccc(OCCOCCOCC[N+](C)(C)CC[N+](C)(C)C)cc2)C1O` (centres unmarked) [Example 1103], for the setting “read-out: Human TC IC50”, the IC50 is 7 nM.
Consider `CCCCC1(CCCC)CS(=O)(=O)c2ccc(N(C)C)cc2C(c2cccc(OCCOCCOCC[N+]3=C4CCCCCN4CCC3)c2)C1O` (centres unmarked) [Example 1104], for which the IC50 (read-out: Human TC IC50) worked out at 7 nM.
On the same count and under the same terms, with `CCCCC1(CCCC)CS(=O)(=O)c2ccc(N(C)C)cc2C(c2cccc(O)c2)C1O` (centres unmarked) [Example 1106] the figure was 7.3 nM.
The same measure, in the same setting: as for `CCCCC1(CCCC)CS(=O)(=O)c2ccc(N(C)C)cc2C(c2cccc(C[n+]3ccccc3)c2)C1O` (centres unmarked) [Example 1107], the figure is 7.5 nM; as for `CCCCC1(CCCC)CS(=O)(=O)c2ccc(N(C)C)cc2C(c2cccnc2)C1O` (centres unmarked) [Example 1108], 7.5 nM; as for `CCCCC1(CCCC)CS(=O)(=O)c2ccc(N(C)C)cc2C(c2ccc(OCc3ccccn3)c(F)c2)C1O` (centres unmarked) [Example 1109], 8 nM.
On the same count and under the same terms, as for `CCCCC1(CCCC)CS(=O)(=O)c2ccc(N(C)C)cc2C(c2cccc(OCCOCCOCC[n+]3ccc(N4CCCC4)cc3)c2)C1O` (centres unmarked) [Example 1110], the figure is 8 nM; as for `CCCCC1(CCCC)CS(=O)(=O)c2ccc(N(C)C)cc2C(c2ccc(OCCC[n+]3ccc(CCC(=O)O)cc3)c(F)c2)C1O` (centres unmarked) [Example 1111], 8 nM.
On to `CCCCC1(CCCC)CS(=O)(=O)c2ccc(N(C)C)cc2C(c2ccncc2)C1O` (centres unmarked) [Example 1112], for which, under “read-out: Human TC IC50”, the IC50 came out at 8 nM.
Still for that read-out and setting: as for `CCCCC1(CCCC)CS(=O)(=O)c2ccc(N(C)C)cc2C(c2ccc(OCc3ccncc3)c(F)c2)C1O` (centres unmarked) [Example 1113], the figure is 9 nM; as for `CCCCC1(CCCC)CS(=O)(=O)c2ccc(NC)cc2C(c2cccc(OC)c2)C1O` (centres unmarked) [Example 1114], 9 nM.
Same read-out and setting: as for `CCCCC1(CCCC)CS(=O)(=O)c2ccc(N(C)C)cc2C(c2ccc(F)cc2)C1O` (centres unmarked) [Example 1115], the figure is 9.8 nM; as for `CCCCC1(CC)CS(=O)(=O)c2ccc(N(C)C)cc2C(c2cccc(OCCOCCOCC[N+](C)(C)C)c2)C1O` (centres unmarked) [Example 1117], 10 nM; as for `CCCCC1(CC)CS(=O)(=O)c2ccc(N(C)C)cc2C(c2ccc(O)c(F)c2)C1O` (centres unmarked) [Example 1118], 10 nM.
Same read-out and setting: with `CCCCC1(CCCC)CS(=O)(=O)c2ccc(N(C)C)cc2C(c2cccc(OCCOCCOCC[n+]3ccc(-c4ccccc4)cc3)c2)C1O` (centres unmarked) [Example 1119] the figure was 10 nM.
As for `CCCCC1(CCCC)CS(=O)(=O)c2ccc(N(C)C)cc2C(c2cccc(OCCOCCOCC[N+](CC)(CC)CC(OCC)OCC)c2)C1O` (centres unmarked) [Example 1120], the IC50 (read-out: Human TC IC50) came out at 10 nM.
Still for that read-out and setting: with `CCCCC1(CCCC)CS(=O)(=O)c2ccc(N(C)C)cc2C(c2cccc(OCCOCCOCC[n+]3ccc(C4CC=CCC4)cc3)c2)C1O` (centres unmarked) [Example 1121] the figure was 10 nM; with `CCCCC1(CCCC)CS(=O)(=O)c2ccc(N(C)C)cc2C(c2ccc(OCCOCC[N+](CC)(CC)CCN(CC)CC)c(F)c2)C1O` (centres unmarked) [Example 1122], 11 nM.
`CCCCC1(CCCC)CS(=O)(=O)c2ccc(N(C)C)cc2C(c2ccccc2)C1O` (centres unmarked) [Example 1123]: the IC50 (read-out: Human TC IC50) was determined as 11 nM.
The same measure, in the same setting: with `CCCCC1(CCCC)CS(=O)(=O)c2ccc(N(C)C)cc2C(c2cccc(OC)c2)C1O` (centres unmarked) [Example 1124] the figure was 11 nM; with `CCCCC1(CCCC)CS(=O)(=O)c2ccc(N(C)C)cc2C(c2ccc(OC)c(Cl)c2)C1O` (centres unmarked) [Example 1125], 12 nM.
With `CCCCC1(CC)CS(=O)(=O)c2ccc(N(C)C)cc2C(c2cccc(OCCOCCOCCI)c2)C1O` (centres unmarked) [Example 1126], under “read-out: Human TC IC50”, the IC50 was 13 nM.
Still for that read-out and setting: as for `CCCCC1(CCCC)CS(=O)(=O)c2ccc(N(C)C)cc2C(c2cccc(OCCOCCOCC[n+]3ccc(CCC)cc3)c2)C1O` (centres unmarked) [Example 1127], the figure is 13 nM; as for `CCCCC1(CCCC)CS(=O)(=O)c2ccc(N(C)C)cc2C(c2ccc(O)c(F)c2)C1O` (centres unmarked) [Example 1128], 17 nM.
On the same count and under the same terms, as for `CCCCC1(CCCC)CS(=O)(=O)c2c(cccc2N(C)C)C(c2ccc(F)cc2)C1O` (centres unmarked) [Example 1129], the figure is 18 nM; as for `CCCCC1(CCCC)CS(=O)(=O)c2ccc(N(C)C)cc2C(c2ccc(F)c(Cl)c2)C1O` (centres unmarked) [Example 1130], 18 nM; as for `CCCCC1(CC)CS(=O)(=O)c2ccc(N(C)C)cc2C(c2ccc(OC)cc2)C1O` (centres unmarked) [Example 1131], 20 nM.
On to `CCCCC1(CCCC)CS(=O)(=O)c2ccc(N(C)C)cc2C(c2cccc(OCCOCCOCC[n+]3ccc4c(c3)CCCC4)c2)C1O` (centres unmarked) [Example 1132], for which the IC50 (read-out: Human TC IC50) came to 20 nM.
The same measure, in the same setting: with `CCCCC1(CCCC)CS(=O)(=O)c2ccc(N(C)C)cc2C(c2ccc(CC#N)cc2)C1O` (centres unmarked) [Example 1133] the figure was 20 nM.
Same read-out and setting: as for `CCCCC1(CC)CS(=O)(=O)c2ccc(N(C)C)cc2C(c2cccc(OCCCCOC(C)=O)c2)C1O` (centres unmarked) [Example 1134], the figure is 20 nM.
Still for that read-out and setting: with `CCCCC1(CCCC)CS(=O)(=O)c2ccc(N(C)C)cc2C(c2ccc(OC)c(OC)c2)C1O` (centres unmarked) [Example 1135] the figure was 21 nM; with `CCCCC1(CCCC)CS(=O)(=O)c2ccc(N(C)C)cc2C(c2cccc(OCCOCCOCCI)c2)C1O` (centres unmarked) [Example 1136], 21 nM; with `CCCCC1(CCCC)CS(=O)(=O)c2c(NN(C)C)cccc2C(c2ccc(F)cc2)C1O` (centres unmarked) [Example 1137], 21 nM.
Turning to `CCCCC1(CCCC)CS(=O)(=O)c2ccc(N(C)C)cc2C(c2cccc(OCCOCCOCC[n+]3ccc(C(C)(C)C)cc3)c2)C1O` (centres unmarked) [Example 1138], the IC50 (read-out: Human TC IC50) stood at 22 nM.
Take `CCCCC1(CCCC)CS(=O)(=O)c2ccc(N(C)C)cc2C(c2ccc(F)c(F)c2)C1O` (centres unmarked) [Example 1139]: the IC50 (read-out: Human TC IC50) stood at 22 nM.
In the case of `CCCCC1(CCCC)CS(=O)(=O)c2ccc(NN(C)C)cc2C(c2cccc(OC)c2)C1O` (centres unmarked) [Example 1140], the IC50 (read-out: Human TC IC50) was 23 nM.
Same read-out and setting: with `CCCCC1(CCCC)CS(=O)(=O)c2ccc(N(C)CC)cc2C(c2ccc(F)cc2)C1O` (centres unmarked) [Example 1141] the figure was 23 nM; with `CCCCC1(CCCC)CS(=O)(=O)c2ccc(N(C)C)cc2C(c2ccc(OCCOCCSCCN(CC)CC)c(F)c2)C1O` (centres unmarked) [Example 1142], 24 nM; with `CCCCC1(CCCC)CS(=O)(=O)c2c(cccc2N(C)C)C(c2ccc(OC)cc2)C1O` (centres unmarked) [Example 1145], 29 nM.
Same read-out and setting: as for `CCCCC1(CCCC)CS(=O)(=O)c2ccc(N(C)C)cc2C(c2ccc(OCCCCCCCCCC[N+](C)(C)C)cc2)C1O` (centres unmarked) [Example 1146], the figure is 29 nM; as for `CCCCC1(CCCC)CS(=O)(=O)c2ccc(N(CC)CC)cc2C(c2cccc(OC)c2)C1O` (centres unmarked) [Example 1147], 29 nM.
Same read-out and setting: with `CCCCC1(CCCC)CS(=O)(=O)c2ccc([S+](C)C)cc2C(c2ccc(F)cc2)C1O` (centres unmarked) [Example 1148] the figure was 30 nM; with `CCCCC1(CCCC)CS(=O)(=O)c2ccc(NCC)cc2C(c2ccc(F)cc2)C1O` (centres unmarked) [Example 1149], 30 nM.
Regarding `CCCCC1(CCCC)CS(=O)(=O)c2ccc(N(C)CC)cc2C(c2cccc(OC)c2)C1O` (centres unmarked) [Example 1150], the IC50 (read-out: Human TC IC50) came to 30 nM.
Still for that read-out and setting: as for `CCCCC1(CCCC)CS(=O)(=O)c2ccc(N(C)COCC)cc2C(c2ccccc2)C1O` (centres unmarked) [Example 1152], the figure is 36 nM; as for `CCCCC1(CCCC)CS(=O)(=O)c2ccc(NC)cc2C(c2ccc(F)cc2)C1O` (centres unmarked) [Example 1153], 37 nM; as for `CCCCC1(CCCC)CS(=O)(=O)c2c(OC)cccc2C(c2cccc(OC)c2)C1O` (centres unmarked) [Example 1154], 37 nM.
On the same count and under the same terms, as for `CCCCC1(CCCC)CS(=O)(=O)c2ccc(C)cc2C(c2ccc(F)cc2)C1O` (centres unmarked) [Example 1155], the figure is 39 nM; as for `CCCCC1(CCCC)CS(=O)(=O)c2ccc(SC)cc2C(c2ccc(F)cc2)C1O` (centres unmarked) [Example 1156], 39 nM; as for `CCCCC1(CCCC)CS(=O)(=O)c2c(cc(F)cc2N(C)C)C(c2ccc(F)cc2)C1O` (centres unmarked) [Example 1157], 40 nM.
Still for that read-out and setting: as for `CCCCC1(CCCC)CS(=O)(=O)c2ccc(OC)cc2C(c2ccncc2)C1O` (centres unmarked) [Example 1158], the figure is 60 nM.
In the case of `CCCCC1(CC)CS(=O)(=O)c2ccc(N(C)C)cc2C(c2ccccc2)C1O` (centres unmarked) [Example 1159], the IC50 (Human TC IC50) was 60 nM.
As for `CCCCC1(CCCC)CS(=O)(=O)c2ccc(N(CC)CC)cc2C(c2ccc(F)cc2)C1O` (centres unmarked) [Example 1160], the 50% inhibitory concentration (IC50) (read-out: Human TC IC50) is 62 nM.
The same measure, in the same setting: as for `CCCCC1(CCCC)CS(=O)(=O)c2ccc(N(C)C)cc2C(c2cc(Cl)c(OC)c(Cl)c2)C1O` (centres unmarked) [Example 1161], the figure is 63 nM; as for `CCCCC1(CCCC)CS(=O)(=O)c2ccc(N(C)C)cc2C(c2ccccc2)C1O` (centres unmarked) [Example 1162], 63 nM; as for `CCCCC1(CCCC)CS(=O)(=O)c2ccc(OC)cc2C(c2cccc(N(C)C)c2)C1O` (centres unmarked) [Example 1163], 90 nM.
The same measure, in the same setting: as for `CCCCC1(CCCC)CS(=O)(=O)c2ccc(OC)cc2C(c2ccncc2)C1O` (centres unmarked) [Example 1164], the figure is 93 nM; as for `CCCCC1(CCCC)CS(=O)(=O)c2ccc([N+](C)(C)C)cc2C(c2ccc(OC)c(F)c2)C1O` (centres unmarked) [Example 1165], 110 nM; as for `CCCCC1(CCCC)CS(=O)(=O)c2ccc([N+](C)(C)C)cc2C(c2cccc(O)c2)C1O` (centres unmarked) [Example 1166], 110 nM.
